# Experimental data: ChEMBL document CHEMBL1201862, “PubChem BioAssay data set” (2004)
#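 Values below derive from 48-hour exposures of cells grown in 96-well plates, with endpoints linearly interpolated between the two concentrations bracketing the appropriate inhibition level. GI50: concentration for 50% inhibition of growth.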 The source made the active and inactive calls. No stated cut-off is given here; in the data, active = GI50 up to about 1.1 µM and inactive = higher.
# Assays:
# Test in all cases: DTP human tumour cell line panel, 48 h
# 786-0 = tested on: 786-0
# A498 = tested on: A498
# A549 = tested on: A549
# ACHN = tested on: ACHN
# BT-549 = tested on: BT-549
# CAKI-1 = tested on: CAKI-1
# CCRF-CEM = tested on: CCRF-CEM
# COLO 205 = tested on: COLO 205
# DU-145 = tested on: DU-145
# EKVX = tested on: EKVX
# HCC 2998 = tested on: HCC 2998
# HCT-116 = tested on: HCT-116
# HCT-15 = tested on: HCT-15
# HL-60 = tested on: HL-60
# HOP-62 = tested on: HOP-62
# HOP-92 = tested on: HOP-92
# HT-29 = tested on: HT-29
# IGROV-1 = tested on: IGROV-1
# K562 = tested on: K562
# KM12 = tested on: KM12
# LOX IMVI = tested on: LOX IMVI
# M14 = tested on: M14
# MCF7 = tested on: MCF7
# MDA-MB-231 = tested on: MDA-MB-231
# MDA-MB-435 = tested on: MDA-MB-435
# MDA-N = tested on: MDA-N
# MOLT-4 = tested on: MOLT-4
# Malme-3M = tested on: Malme-3M
# NCI-H226 = tested on: NCI-H226
# NCI-H23 = tested on: NCI-H23
# NCI-H460 = tested on: NCI-H460
# NCI/ADR-RES = tested on: NCI/ADR-RES
# OVCAR-3 = tested on: OVCAR-3
# OVCAR-4 = tested on: OVCAR-4
# OVCAR-5 = tested on: OVCAR-5
# OVCAR-8 = tested on: OVCAR-8
# PC-3 = tested on: PC-3
# RXF 393 = tested on: RXF 393
# SF-295 = tested on: SF-295
# SK-MEL-28 = tested on: SK-MEL-28
# SK-MEL-2 = tested on: SK-MEL-2
# SK-MEL-5 = tested on: SK-MEL-5
# SK-OV-3 = tested on: SK-OV-3
# SNB-19 = tested on: SNB-19
# SNB-75 = tested on: SNB-75
# SW-620 = tested on: SW-620
# T47D = tested on: T47D
# TK-10 = tested on: TK-10
# U-251 = tested on: U-251
# UACC-257 = tested on: UACC-257
# UACC-62 = tested on: UACC-62
# UO-31 = tested on: UO-31
# RPMI-8226 = tested on: RPMI-8226
# SF-539 = tested on: SF-539
# SN12C = tested on: SN12C
# SR = tested on: SR
# Hs-578T = tested on: Hs-578T
# NCI-H522 = tested on: NCI-H522
# SF-268 = tested on: SF-268
compound,measurement,setting,value
COc1ccc(Cc2nc3cc([N+](=O)[O-])ccc3n2C[C@@H]2CCCN3CCCCC23)cc1 (some centres undefined),GI50,786-0,18.6 µM (inactive)
same,GI50,A498,16.6 µM (inactive)
same,GI50,A549,15.8 µM (inactive)
same,GI50,ACHN,33.2 µM (inactive)
same,GI50,BT-549,19.7 µM (inactive)
same,GI50,CAKI-1,19.3 µM (inactive)
same,GI50,CCRF-CEM,11.2 µM (inactive)
same,GI50,COLO 205,13.7 µM (inactive)
same,GI50,DU-145,37.9 µM (inactive)
same,GI50,EKVX,31 µM (inactive)
same,GI50,HCC 2998,12.6 µM (inactive)
same,GI50,HCT-116,14.7 µM (inactive)
same,GI50,HCT-15,23.4 µM
same,GI50,HL-60,4.01 µM (inactive)
same,GI50,HOP-62,19.3 µM (inactive)
same,GI50,HOP-92,12.8 µM (inactive)
same,GI50,HT-29,17 µM (inactive)
same,GI50,IGROV-1,17.7 µM (inactive)
same,GI50,K562,19.8 µM (inactive)
same,GI50,KM12,16.3 µM (inactive)
same,GI50,LOX IMVI,16.7 µM (inactive)
same,GI50,M14,14.2 µM (inactive)
same,GI50,MCF7,27.2 µM (inactive)
same,GI50,MDA-MB-231,19.3 µM (inactive)
same,GI50,MDA-MB-435,18.6 µM (inactive)
same,GI50,MDA-N,17.7 µM (inactive)
same,GI50,MOLT-4,18.6 µM (inactive)
same,GI50,Malme-3M,16.7 µM (inactive)
same,GI50,NCI-H226,31.6 µM (inactive)
same,GI50,NCI-H23,29.8 µM (inactive)
same,GI50,NCI-H460,28.2 µM (inactive)
same,GI50,NCI/ADR-RES,25.2 µM (inactive)
same,GI50,OVCAR-3,20.9 µM (inactive)
same,GI50,OVCAR-4,18.7 µM (inactive)
same,GI50,OVCAR-5,29.3 µM (inactive)
same,GI50,OVCAR-8,45.7 µM (inactive)
same,GI50,PC-3,27.1 µM (inactive)
same,GI50,RXF 393,15.4 µM (inactive)
same,GI50,SF-295,18 µM (inactive)
same,GI50,SK-MEL-28,17.7 µM (inactive)
same,GI50,SK-MEL-2,17.7 µM (inactive)
same,GI50,SK-MEL-5,14.8 µM (inactive)
same,GI50,SK-OV-3,20.2 µM (inactive)
same,GI50,SNB-19,19.8 µM (inactive)
same,GI50,SNB-75,40.7 µM (inactive)
same,GI50,SW-620,26 µM (inactive)
same,GI50,T47D,33.1 µM (inactive)
same,GI50,TK-10,25.2 µM (inactive)
same,GI50,U-251,20.9 µM (inactive)
same,GI50,UACC-257,15.8 µM (inactive)
same,GI50,UACC-62,17.3 µM (inactive)
same,GI50,UO-31,8.3 µM (inactive)
O=C(O)CCCOc1cc(-c2ccccc2F)nc2cc3c(cc12)OCO3,GI50,786-0,6.38 µM (inactive)
same,GI50,A549,5.77 µM (inactive)
same,GI50,BT-549,29.8 µM (inactive)
same,GI50,CAKI-1,9.64 µM (inactive)
same,GI50,CCRF-CEM,3.27 µM (inactive)
same,GI50,COLO 205,3.47 µM (inactive)
same,GI50,DU-145,5.75 µM (inactive)
same,GI50,EKVX,> 100 µM (inactive)
same,GI50,HCC 2998,46.1 µM (inactive)
same,GI50,HCT-15,27.9 µM
same,GI50,HOP-62,4.01 µM (inactive)
same,GI50,HOP-92,13 µM (inactive)
same,GI50,HT-29,4.54 µM (inactive)
same,GI50,IGROV-1,2.58 µM (inactive)
same,GI50,KM12,4.19 µM (inactive)
same,GI50,LOX IMVI,4.51 µM (inactive)
same,GI50,M14,3.73 µM (inactive)
same,GI50,MCF7,5.35 µM (inactive)
same,GI50,MDA-MB-231,31.3 µM (inactive)
same,GI50,MDA-MB-435,3.18 µM (inactive)
same,GI50,MDA-N,1.72 µM (inactive)
same,GI50,MOLT-4,5.9 µM (inactive)
same,GI50,Malme-3M,7.38 µM (inactive)
same,GI50,NCI-H23,44.9 µM (inactive)
same,GI50,NCI/ADR-RES,4.65 µM (inactive)
same,GI50,OVCAR-4,45.9 µM (inactive)
same,GI50,OVCAR-5,8.32 µM (inactive)
same,GI50,OVCAR-8,5.66 µM (inactive)
same,GI50,PC-3,3 µM (inactive)
same,GI50,RPMI-8226,3.73 µM (inactive)
same,GI50,SF-539,3.4 µM (inactive)
same,GI50,SK-MEL-28,7.89 µM (inactive)
same,GI50,SK-MEL-2,4.99 µM (inactive)
same,GI50,SK-OV-3,6.11 µM (inactive)
same,GI50,SN12C,19.3 µM (inactive)
same,GI50,SNB-75,6.56 µM (inactive)
same,GI50,SR,3.93 µM (inactive)
same,GI50,SW-620,6.07 µM (inactive)
same,GI50,T47D,> 100 µM (inactive)
same,GI50,TK-10,> 100 µM (inactive)
same,GI50,U-251,5.46 µM (inactive)
same,GI50,UACC-62,6.17 µM (inactive)
CC(=O)OC1C2CCC1C1C2N=NN1c1ccc([N+](=O)[O-])cc1 (centres undefined),GI50,786-0,> 100 µM (inactive)
same,GI50,A498,> 100 µM (inactive)
same,GI50,A549,> 100 µM (inactive)
same,GI50,ACHN,> 100 µM (inactive)
same,GI50,BT-549,> 100 µM (inactive)
same,GI50,CCRF-CEM,> 100 µM (inactive)
same,GI50,COLO 205,> 100 µM (inactive)
same,GI50,DU-145,> 100 µM (inactive)
same,GI50,EKVX,> 100 µM (inactive)
same,GI50,HCC 2998,> 100 µM (inactive)
same,GI50,HCT-116,> 100 µM (inactive)
same,GI50,HCT-15,> 100 µM
same,GI50,HL-60,> 100 µM (inactive)
same,GI50,HOP-62,> 100 µM (inactive)
same,GI50,HOP-92,> 100 µM (inactive)
same,GI50,HT-29,> 100 µM (inactive)
same,GI50,Hs-578T,> 100 µM (inactive)
same,GI50,IGROV-1,> 100 µM (inactive)
same,GI50,KM12,> 100 µM (inactive)
same,GI50,LOX IMVI,> 100 µM (inactive)
same,GI50,M14,> 100 µM (inactive)
same,GI50,MCF7,> 100 µM (inactive)
same,GI50,MDA-MB-231,> 100 µM (inactive)
same,GI50,MDA-MB-435,> 100 µM (inactive)
same,GI50,MOLT-4,> 100 µM (inactive)
same,GI50,Malme-3M,> 100 µM (inactive)
same,GI50,NCI-H226,> 100 µM (inactive)
same,GI50,NCI-H23,> 100 µM (inactive)
same,GI50,NCI-H460,> 100 µM (inactive)
same,GI50,NCI-H522,64.4 µM (inactive)
same,GI50,NCI/ADR-RES,> 100 µM (inactive)
same,GI50,OVCAR-3,> 100 µM (inactive)
same,GI50,OVCAR-4,> 100 µM (inactive)
same,GI50,OVCAR-5,> 100 µM (inactive)
same,GI50,OVCAR-8,> 100 µM (inactive)
same,GI50,PC-3,> 100 µM (inactive)
same,GI50,RPMI-8226,> 100 µM (inactive)
same,GI50,SF-268,> 100 µM (inactive)
same,GI50,SF-295,> 100 µM (inactive)
same,GI50,SF-539,> 100 µM (inactive)
same,GI50,SK-MEL-28,> 100 µM (inactive)
same,GI50,SK-MEL-2,> 100 µM (inactive)
same,GI50,SK-MEL-5,> 100 µM (inactive)
same,GI50,SK-OV-3,> 100 µM (inactive)
same,GI50,SN12C,> 100 µM (inactive)
same,GI50,SNB-19,> 100 µM (inactive)
same,GI50,SNB-75,> 100 µM (inactive)
same,GI50,SR,15.7 µM (inactive)
same,GI50,SW-620,> 100 µM (inactive)
same,GI50,T47D,> 100 µM (inactive)
same,GI50,TK-10,> 100 µM (inactive)
same,GI50,U-251,> 100 µM (inactive)
same,GI50,UACC-257,> 100 µM (inactive)
same,GI50,UACC-62,> 100 µM (inactive)
same,GI50,UO-31,> 100 µM (inactive)
